Data as given in patent US7157580B2, “Aminopyrimidine and aminopyridine anti-inflammation agents” (Roche Palo Alto LLC, priority 2001, dated 2007).

## Cn1cncc1-c1cc(/C=N/N(CCC(C)(C)O)C(N)=S)nc(NC2CCN(S(C)(=O)=O)CC2)n1 [Compound 96, 2-(1-methanesulfonyl-piperidin-4-ylamino)-6-(1-methyl-1H-imidazol-5-yl)-pyrimidine-4-carbaldehyde 2-(2-hydroxy-2-methyl-but-4-yl)-thiosemicarbazone]
  melting point: 203.6 to 206 °C
